Measured values as given in patent US9617310B2 (priority 2013, dated 2017).
pEC50: −log10 of the molar value.

System: genotype 4a stable HCV replicon (ED43) in Huh-7-derived cells
Test: Stable subgenomic HCV replicon, genotype 4a, Renilla luciferase
Assay type: cell-based
Details: Hepatitis C virus, 72 h, read-out: EC50 4A RLUC
Method: Antiviral potency (EC50) was determined in both stable subgenomic HCV replicon cell lines and transient-transfected HCV replicon cells. The term half maximal effective concentration (EC50) refers to the concentration of a drug which induces a response halfway between the baseline and maximum after the exposure time specified below.
Stable subgenomic HCV replicons for genotype 1a, 1b, 2a, 3a, and 4a were established in Huh-7-derived cells as described by Lohmann et al (Lohmann V, Korner F, Koch J, et al Replication of subgenomic hepatitis C virus RNAs in a hepatoma cell line. Science 1999; 285:119-3). Each stable cell line contains a bicistronic HCV replicon that encodes a humanized Renilla luciferase (hRLuc) reporter gene fused to a selectable neomycin-resistance gene, followed by an EMCV IRES and the NS3-NS5B coding region of HCV. […] Luciferase activity was measured as a marker for intracellular HCV replication levels.
The genotype 1a stable replicon was derived from the H77 HCV strain and contained adaptive mutations P1496L and S2204I. The genotype 1b stable replicon was derived from the Con1 HCV strain and contained adaptive mutations E1202G, T1280I, and K1846T. […] The genotype 3a stable replicon was derived from the S52 HCV strain and contained adaptive mutations P1121 L, A1198T and S2210I (equivalent to S2204I in genotype 1). The genotype 4a stable replicon was derived from the ED43 HCV strain and contained adaptive mutations Q1691R and S2204I. All replicon cell lines were propagated in Huh-7-derived cells and maintained in Dulbecco's modified Eagle's Medium (DMEM) supplemented with 10% fetal bovine serum (FBS) and 0.5 mg/ml G418.
To perform EC50 assays, cells from each HCV replicon were dispensed into 384-well plates. Compounds were dissolved in DMSO at a concentration of 10 mM and diluted in DMSO using an automated pipetting instrument. Three-fold serially diluted compounds were directly added to the cells using an automated instrument. DMSO was used as a negative (solvent; no inhibition) control, and a combination of three HCV inhibitors including a protease inhibitor; an NS5A inhibitor and a nucleoside inhibitor was used at concentrations >100×EC50 as a positive control (100% inhibition). Seventy-two hours later, cells were lysed and Renilla luciferase activity were quantified as recommended by the manufacturer (Promega-Madison, Wis.). Non-linear regression was performed to calculate […], values.

| Structure (SMILES) | pEC50 |
| --- | --- |
| CC(C)(C)[C@@H]1NC(=O)O[C@@H]2C[C@@H]3C[C@@H]3[C@H]2CCCCC(F)(F)c2nc3ccc(C#N)cc3nc2O[C@@H]2C[C@@H](C(=O)N[C@]3(C(=O)NS(=O)(=O)C4(C)CC4)C[C@H]3C(F)F)N(C2)C1=O [Example 14, (1aS,2aR,6S,9S,11R,23aR,23bS)-6-tert-butyl-15-cyano-N-[(1R,2R)-2-(difluoromethyl)-1-{[(1-methylcyclopropyl)sulfonyl]carbamoyl}cyclopropyl]-19,19-difluoro-4,7-dioxo-1a,2,2a,4,5,6,7,10,11,19,20,21,22,23,23a,23b-hexadecahydro-1H,9H-8,11-methanocyclopropa[4′,5′]cyclopenta [1′,2′:18,19][1,10,3,6]dioxadiazacyclononadecino[11,12-b]quinoxaline-9-carboxamide] | 8.85 |
| COc1ccc2nc3c(nc2c1)O[C@@H]1C[C@@H](C(=O)N[C@]2(C(=O)NS(=O)(=O)C4(C)CC4)C[C@H]2C(F)F)N(C1)C(=O)[C@H](C(C)(C)C)NC(=O)O[C@@H]1[C@H]2CC[C@H](C2)[C@H]1CCCCC3 [Example 5, (1R,4S,4aR,8S,11S,13R,25aR)-8-tert-butyl-N-[(1R,2R)-2-(difluoromethyl)-1-{[(1-methylcyclopropyl)sulfonyl]carbamoyl}cyclopropyl]-17-methoxy-6,9-dioxo-2,3,4,4a,6,7,8,9,12,13,21,22,23,24,25,25a-hexadecahydro-1H,11H-1, 4:10,13-dimethanoquinoxalino[2,3-k][1,10,3,6]benzodioxadiazacyclononadecine-11-carboxamide] | 8.41 |
| CC(C)(C)[C@@H]1NC(=O)O[C@@H]2C[C@@H]3C[C@@H]3[C@H]2CCCCCc2nc3ccc(F)cc3nc2O[C@@H]2C[C@@H](C(=O)N[C@]3(C(=O)NS(=O)(=O)C4CC4)C[C@H]3C(F)F)N(C2)C1=O [Example 12, (1aS,2aR,6S,9S,11R,23aR,23bS)-6-tert-butyl-N-[(1R,2R)-1-[(cyclopropylsulfonyl)carbamoyl]-2-(difluoromethyl)cyclopropyl]-15-fluoro-4,7-dioxo-1a,2,2a,4,5,6,7,10,11,19,20,21,22,23,23a,23b-hexadecahydro-1H,9H-8,11-methanocyclopropa[4′,5′]cyclopenta[1′,2′:18,19][1,10,3,6]dioxadiazacyclononadecino[11,12-b]quinoxaline-9-carboxamide] | 8.85 |
| COc1ccc2nc3c(nc2c1)O[C@@H]1C[C@@H](C(=O)N[C@]2(C(=O)NS(=O)(=O)C4CC4)C[C@H]2C(F)F)N(C1)C(=O)[C@H](C(C)(C)C)NC(=O)O[C@@H]1C[C@@H]2C[C@@H]2[C@H]1CCCCC3 [Example 1, (1aS,2aR,6S,9S,11R,23aR,23bS)-6-tert-butyl-N-[(1R,2R)-1-[(cyclopropylsulfonyl)carbamoyl]-2-(difluoromethyl)cyclopropyl]-15-methoxy-4,7-dioxo-1a,2,2a,4,5,6,7,10,11,19,20,21,22,23,23a,23b-hexadecahydro-1H,9H-8,11-methanocyclopropa[4′,5′]cyclopenta[1′,2′:18,19][1,10,3,6]dioxadiazacyclononadecino[11,12-b]quinoxaline-9-carboxamide] | 9.00 |
| CC(C)(C)[C@@H]1NC(=O)O[C@@H]2C[C@@H]3C[C@@H]3[C@H]2CCCCCc2nc3ccc(F)cc3nc2O[C@@H]2C[C@@H](C(=O)N[C@]3(C(=O)NS(=O)(=O)C4(C)CC4)C[C@H]3C(F)F)N(C2)C1=O [Example 11, (1aS,2aR,6S,9S,11R,23aR,23bS)-6-tert-butyl-N-[(1R,2R)-2-(difluoromethyl)-1-{[(1-methylcyclopropyl)sulfonyl]carbamoyl}cyclopropyl]-15-fluoro-4,7-dioxo-1a,2,2a,4,5,6,7,10,11,19,20,21,22,23,23a,23b-hexadecahydro-1H,9H-8,11-methanocyclopropa[4′,5′]cyclopenta[1′,2′:18,19][1,10,3,6]dioxadiazacyclononadecino[11,12-b]quinoxaline-9-carboxamide] | 8.92 |
| COc1ccc2nc3c(nc2c1)O[C@@H]1C[C@@H](C(=O)N[C@]2(C(=O)NS(=O)(=O)C4CC4)C[C@H]2CC(F)F)N(C1)C(=O)[C@H](C(C)(C)C)NC(=O)O[C@@H]1C[C@@H]2C[C@@H]2[C@H]1CCCCC3 [Example 3, (1aS,2aR,6S,9S,11R,23aR,23bS)-6-tert-butyl-N-[(1R,2S)-1-[(cyclopropylsulfonyl)carbamoyl]-2-(2,2-difluoroethyl)cyclopropyl]-15-methoxy-4,7-dioxo-1a,2,2a,4,5,6,7,10,11,19,20,21,22,23,23a,23b-hexadecahydro-1H,9H-8,11-methanocyclopropa[4′,5′]cyclopenta[1′,2′:18,19][1,10,3,6]dioxadiazacyclononadecino[11,12-b]quinoxaline-9-carboxamide] | 8.47 |
| CC(C)(C)[C@@H]1NC(=O)O[C@@H]2C[C@@H]3C[C@@H]3[C@H]2CCCCC(F)(F)c2nc3cc(F)c(F)cc3nc2O[C@@H]2C[C@@H](C(=O)N[C@]3(C(=O)NS(=O)(=O)C4CC4)C[C@H]3C(F)F)N(C2)C1=O (racemic) [Example 15, (1aS,2aR,6S,9S,11R,23aR,23bS)-6-tert-butyl-N-[(1R,2R)-1-[(cyclopropylsulfonyl)carbamoyl]-2-(difluoromethyl)cyclopropyl]-15,16,19,19-tetrafluoro-4,7-dioxo-1a,2,2a,4,5,6,7,10,11,19,20,21,22,23,23a,23b-hexadecahydro-1H,9H-8,11-methanocyclopropa[4′,5′]cyclopenta[1′,2′:18,19][1,10,3,6]dioxadiazacyclononadecino[11,12-b]quinoxaline-9-carboxamide] | 8.59 |
| COc1ccc2nc3c(nc2c1)O[C@@H]1C[C@@H](C(=O)N[C@]2(C(=O)NS(=O)(=O)C4(C)CC4)C[C@H]2C(F)F)N(C1)C(=O)[C@H](C(C)(C)C)NC(=O)O[C@H]1[C@H](CCCCC3)C[C@H]2C[C@H]21 [Example 8, (1aR,1bS,5S,8S,10R,22aR,23aR)-5-tert-butyl-N-[(1R,2R)-2-(difluoromethyl)-1-{[(1-methylcyclopropyl)sulfonyl]carbamoyl}cyclopropyl]-14-methoxy-3,6-dioxo-1a,1b,3,4,5,6,9,10,18,19,20,21,22,22a, 23,23a-hexadecahydro-1H,8H-7,10-methanocyclopropa[3′,4′]cyclopenta [1′,2′:18,19][1,10,3,6]dioxadiazacyclononadecino[11,12-b]quinoxaline-8-carboxamide] | 7.48 |
